Here are results for two molecules from patent US7939267B2, “Detection of activation of endothelial cells as surrogate marker for angiogenesis” (Laboratory Corporation of America Holdings, priority 2004, dated 2011).

Experiment [1] deals with VEGFR2 (Homo sapiens, UniProt P35968). As for the experimental part: (§1) In this example, VEGFR2-VEGFR2 homodimers and phosphorylation states were measured in cell lysates from several cell lines after treatment with various concentrations of vascular endothelial growth factor (VEGF). Measurements were made using three binding compounds and a cleaving probe as described below.
(§2) • 1. Serum-starve human umbilical vein endothelial cell line (HUVEC) culture overnight before use. • 2. Stimulate cell lines with VEGF in culture media for a set period of time (1, 3, 5, 9, 14 minutes) at 37° C. Exemplary doses of VEGF are 0, 2, 10, 25, 50, 250, 1000 ng/mL. • 3. Aspirate culture media, transfer onto ice, and add lysis buffer to lyse cells in situ. • 4. Scrape and transfer lysate to microfuge tube. Incubate on ice for 30 min. Microfuge at 14,000 rpm, 4° C., for 10 min. (Centrifugation is optional.) • 5. Collect supernatants as lysates and aliquot for storage at −80° C. until use. Assay:
(§3) Assay design: As illustrated diagrammatically in FIG. 7A, VEGFR2-VEGFR2 (R2-R2) homodimers (900) are quantified ratiometrically based on the binding of a cleaving probe (902), a first bind compound (904) which is specific for the same antigenic determinant on VEGFR2 as the cleaving probe, a second binding compound (906) which is specific for a different antigenic determinant on VEGFR2 from the cleaving probe, and a third binding compound (908) which is specific for phosphorylated tyrosine. A photosensitizer is attached to the cleaving probe (902) via an avidin-biotin linkage, and the first, second, and third binding compounds are labeled with molecular tags Pro10, Pro14, and Pro2, respectively.
(§4) The total assay volume was 40 ul. The lysate volume was adjusted to 30 ul with lysis buffer. The antibodies are diluted in lysis buffer up to 10 ul. Typically ˜5000 to 15000 cell-equivalent of lysates is used per reaction. The detection limit is ˜1000 cell-equivalent of lysates.
(§5) Procedure: Final concentrations of pre-mixed binding compounds (i.e. molecular tag- or biotin-antibody conjugates) in reaction: • Pro10_anti-VEGFR2: 0.25 ug/ml (VEGFR2 homodimer) • Pro14_anti-VEGFR2: 0.25 ug/ml (total VEGFR2) • Pro2_anti-phospho-Tyr: 0.0125 ug/ml (phosphorylation) • Biotin_anti-VEGFR2: 0.25 ug/ml • 1. To assay 96-well, add 10 ul antibody mix to 30 ul lysate and incubate for 1 hour at RT. • 2. Add 2 ul streptavidin-derivatized cleaving probe (final 2 ug/well) to assay well and incubate for 45 min. • 3. Add 150 ul of wash buffer to 96-well filter plate (Millipore MAGVN2250) and incubate for 1 hr at RT for blocking. • 4. Empty filter plate by vacuum suction.

The target of experiment [2] is T1, VEGFR2-VEGFR2 homodimers (Homo sapiens, UniProt P35968). As for the experimental part: as §1, §2, §3, §4, §5
For experiment [3], the target named is T1, VEGFR2-VEGFR2 homodimers. As for the experimental part: • 1. […] Scrape and transfer lysate to microfuge tube. Incubate on ice for 30 min. […]
This is another data set of the same source.

Experiment [4] relates to BAD. Kind of experiment: BAD phosphorylation in HUVEC cell lysates, releasable molecular tag assay. The class given is cell-based, human. The settings on record: increasing VEGF concentrations, 5 min stimulation time (FIG. 10C). The protocol:
• 1. […] Scrape and transfer lysate to microfuge tube. Incubate on ice for 30 min. […] (Centrifugation is optional.) • 5. […] Assay:
(§6) The total assay volume was 40 ul. […] The detection limit was ˜1000 cell-equivalent of lysates.
Pro52_anti-BAD (Total), 5 nM
Pro46_anti-Phospho-BAD (Phosphorylation), 5 nM
Pro53_anti-phospho-RSK (Phosphorylation), 5 nM • 1. […] Add 20 μl of Antibody mixture. • 3. […] Empty filter plate by vacuum suction. • 6. […] Repeat step 6 one more time. • 8. […] Illuminate the plate for 10 min. • 10.

In experiment [5] the test system is RSK. The conditions noted are these: HUVEC, increasing VEGF concentrations, 5 min stimulation time (FIG. 10B). As for the experimental part:
as §2
(§7) The total assay volume was 40 ul. The lysate volume was adjusted to 30 ul with lysis buffer.

In experiment [6] the test system is Erk. The settings on record: HUVEC, increasing VEGF concentrations, 5 min stimulation time (FIG. 10A). The protocol: as §2, §7
The subject of experiment [7] is Akt. The conditions noted are these: HUVEC, increasing VEGF concentrations, data not shown. The text has this:
Results of the assays are illustrated in FIGS. 10A, 10B and 10C.

In experiment [8] the target is T2, Tie2-Tie2 homodimers (Homo sapiens, UniProt Q02763).
T2 construct: endogenous in cells; host or cells: HUVEC
Kind of experiment: Tie2 homodimerization in HUVEC cell lysates, releasable molecular tag assay. Type of experiment: cell-based. The protocol: (§8) • 1. […] Stimulate cell lines with 200 ng/mL Ang-1 in culture media for a set period of time (10, 30 minutes) at 37° C. • 3. […] Scrape and transfer lysate to microfuge tube. Incubate on ice for 30 min. […] (Centrifugation is optional.) • 5. […] Assay:
(§9) Assay design: As illustrated diagrammatically in FIG. 4C, Tie2-Tie2 homodimers are quantified ratiometrically based on the binding of cleaving probe (134) and binding compounds (130), and (132). A photosensitizer indicated by “PS” is attached to cleaving probe (134) via an avidin-biotin linkage, and binding compounds (130), and (132) are labeled with molecular tags Pro10, and Pro14, respectively.
as §6
Pro10_anti-Tie2: 0.25 ug/ml (Tie2 homodimer)
(§10) Pro14_anti-Tie2: 0.25 ug/ml (total Tie2)
(§11) Biotin_anti-Tie2: 0.25 ug/ml • 1. […] Empty filter plate by vacuum suction. […] Repeat one time. • 6. […] Repeat one time. • 7. […] Assay buffers are as previously described. Data Analysis: • 1. […] Report homodimerization of Tie2 as the corresponding RFU ratiometric to RFU from Pro14_anti-Tie2 from assay wells using biotin_anti-Tie2.

For experiment [9], the target named is T3, Tie2 (Homo sapiens, UniProt Q02763).
T3 construct: endogenous in cells; host or cells: HUVEC
Kind of experiment: Total Tie2 receptor in HUVEC cell lysates, releasable molecular tag assay. Type of experiment: cell-based. The conditions noted are these: Ang-1 treatment (FIG. 8B). The protocol: as §8, §9, §6, §10, §11

Where two headings read alike, the source gives them in different places.

T1 sequence (P35968 20-1356): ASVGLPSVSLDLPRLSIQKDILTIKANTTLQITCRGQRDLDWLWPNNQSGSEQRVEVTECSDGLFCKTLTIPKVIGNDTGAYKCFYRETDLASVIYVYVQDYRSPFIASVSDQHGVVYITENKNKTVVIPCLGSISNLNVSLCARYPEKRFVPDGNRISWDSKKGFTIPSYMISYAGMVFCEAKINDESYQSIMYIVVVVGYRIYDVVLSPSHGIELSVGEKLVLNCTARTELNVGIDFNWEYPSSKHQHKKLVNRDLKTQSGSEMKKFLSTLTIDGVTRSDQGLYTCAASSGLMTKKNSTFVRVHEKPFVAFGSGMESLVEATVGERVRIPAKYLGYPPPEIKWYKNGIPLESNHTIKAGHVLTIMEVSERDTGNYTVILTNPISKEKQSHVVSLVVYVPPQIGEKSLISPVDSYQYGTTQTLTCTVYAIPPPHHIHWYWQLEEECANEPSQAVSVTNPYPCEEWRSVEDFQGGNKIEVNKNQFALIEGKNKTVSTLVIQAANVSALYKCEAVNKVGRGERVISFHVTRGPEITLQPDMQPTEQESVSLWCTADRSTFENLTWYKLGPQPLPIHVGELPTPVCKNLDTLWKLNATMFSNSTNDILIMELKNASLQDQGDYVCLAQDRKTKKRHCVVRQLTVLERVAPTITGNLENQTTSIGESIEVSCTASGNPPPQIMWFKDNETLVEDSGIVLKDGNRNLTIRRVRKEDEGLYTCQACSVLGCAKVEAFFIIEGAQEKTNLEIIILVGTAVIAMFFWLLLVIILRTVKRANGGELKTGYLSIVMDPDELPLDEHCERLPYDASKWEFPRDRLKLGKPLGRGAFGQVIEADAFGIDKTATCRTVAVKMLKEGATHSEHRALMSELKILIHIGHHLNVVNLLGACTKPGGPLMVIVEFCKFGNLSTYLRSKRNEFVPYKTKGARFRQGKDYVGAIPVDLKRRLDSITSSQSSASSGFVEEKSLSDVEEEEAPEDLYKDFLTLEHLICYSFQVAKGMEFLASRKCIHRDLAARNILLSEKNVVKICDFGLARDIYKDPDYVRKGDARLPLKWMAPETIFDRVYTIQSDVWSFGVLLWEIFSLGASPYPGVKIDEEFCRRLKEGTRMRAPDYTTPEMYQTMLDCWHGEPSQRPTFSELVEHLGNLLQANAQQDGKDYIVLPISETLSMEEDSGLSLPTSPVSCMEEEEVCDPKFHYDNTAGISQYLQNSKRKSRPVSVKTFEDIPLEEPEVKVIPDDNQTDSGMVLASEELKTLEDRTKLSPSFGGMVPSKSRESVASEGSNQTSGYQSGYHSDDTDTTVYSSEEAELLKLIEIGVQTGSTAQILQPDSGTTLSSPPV
VEGFR2, sequence (P35968 20-1356): as above
T2 sequence (Q02763 23-1124): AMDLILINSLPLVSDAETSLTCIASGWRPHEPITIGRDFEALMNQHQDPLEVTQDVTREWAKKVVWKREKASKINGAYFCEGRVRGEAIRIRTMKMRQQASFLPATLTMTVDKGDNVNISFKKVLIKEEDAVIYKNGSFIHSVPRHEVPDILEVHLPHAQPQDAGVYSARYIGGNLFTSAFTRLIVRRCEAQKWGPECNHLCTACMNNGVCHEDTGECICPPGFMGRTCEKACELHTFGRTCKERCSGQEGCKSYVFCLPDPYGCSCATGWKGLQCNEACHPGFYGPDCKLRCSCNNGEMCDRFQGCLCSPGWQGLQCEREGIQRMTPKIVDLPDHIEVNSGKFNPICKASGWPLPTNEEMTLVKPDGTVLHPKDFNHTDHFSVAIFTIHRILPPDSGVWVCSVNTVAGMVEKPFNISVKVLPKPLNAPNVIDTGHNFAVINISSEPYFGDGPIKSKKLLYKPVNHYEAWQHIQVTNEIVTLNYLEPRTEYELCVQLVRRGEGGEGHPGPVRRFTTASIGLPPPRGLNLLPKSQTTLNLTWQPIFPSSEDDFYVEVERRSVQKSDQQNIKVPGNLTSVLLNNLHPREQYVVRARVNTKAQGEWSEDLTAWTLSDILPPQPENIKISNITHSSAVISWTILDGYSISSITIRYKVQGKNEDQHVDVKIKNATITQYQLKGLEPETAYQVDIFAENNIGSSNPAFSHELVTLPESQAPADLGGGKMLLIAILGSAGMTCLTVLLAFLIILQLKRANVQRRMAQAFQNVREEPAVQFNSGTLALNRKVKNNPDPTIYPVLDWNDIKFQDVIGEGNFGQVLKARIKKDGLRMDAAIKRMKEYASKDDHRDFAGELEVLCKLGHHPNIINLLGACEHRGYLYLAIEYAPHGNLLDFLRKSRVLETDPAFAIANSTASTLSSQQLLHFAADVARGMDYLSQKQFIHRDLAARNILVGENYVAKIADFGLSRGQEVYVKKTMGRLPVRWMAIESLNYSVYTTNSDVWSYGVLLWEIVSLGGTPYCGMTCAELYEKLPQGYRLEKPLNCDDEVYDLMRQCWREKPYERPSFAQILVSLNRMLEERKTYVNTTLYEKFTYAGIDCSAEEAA
T3 sequence (Q02763 23-1124): as above

On to VEGF, for which, in experiment [1], the VEGFR2 phosphorylation entry is listed as “increases on HUVEC cells with increasing concentrations of VEGF”; the “VEGFR2 phosphorylation over time” value is “transient, peaking at 1 minute of stimulation and decreasing to background level by 5 minutes”. In [2], the “VEGFR2-VEGFR2 homodimer formation over time” value is “form by 1 minute of VEGF stimulation, and remain after up to 14 minutes of stimulation”; the VEGFR2 homodimerization result is “large increase in VEGFR2 homodimerization”; the “quantity of VEGFR2-VEGFR2 homodimers” value is listed as “increases on HUVEC cells with increasing concentrations of VEGF”. The VEGFR2 homodimerization result in experiment [3] is listed as “large increase in VEGFR2 homodimerization”. Further, in experiment [4], the “phosphorylation state of BAD” value is on record as “increases on HUVEC cells with increasing concentrations of VEGF”. Also, the “phosphorylation state of RSK” value in experiment [5] is on record as “increases on HUVEC cells with increasing concentrations of VEGF”. Besides, the “phosphorylation state of Erk” value in experiment [6] is recorded as “increases on HUVEC cells with increasing concentrations of VEGF”. Besides, the “phosphorylation of Akt” value in [7] is given as “increased on HUVEC cells with increasing concentrations of VEGF”.

B1: Ang-1: angiopoietin-1, major physiological ligand for Tie-2, used to stimulate HUVEC cells (protein, UniProt Q15389 16-498, looked up)
Angiopoietin-1: HIGCSNQRRSPENSGRRYNRIQHGQCAYTFILPEHDGNCRESTTDQYNTNALQRDAPHVEPDFSSQKLQHLEHVMENYTQWLQKLENYIVENMKSEMAQIQQNAVQNHTATMLEIGTSLLSQTAEQTRKLTDVETQVLNQTSRLEIQLLENSLSTYKLEKQLLQQTNEILKIHEKNSLLEHKILEMEGKHKEELDTLKEEKENLQGLVTRQTYIIQELEKQLNRATTNNSVLQKQQLELMDTVHNLVNLCTKEGVLLKGGKREEEKPFRDCADVYQAGFNKSGIYTIYINNMPEPKKVFCNMDVNGGGWTVIQHREDGSLDFQRGWKEYKMGFGNPSGEYWLGNEFIFAITSQRQYMLRIELMDWEGNRAYSQYDRFHIGNEKQNYRLYLKGHTGTAGKQSSLILHGADFSTKDADNDNCMCKCALMLTGGWWFDACGPSNLNGMFYTAGQNHGKLNGIKWHYFKGPSYSLRSTTMMIRPLDF
As for B1, the “quantity of Tie2-Tie2 homodimers” value in [8] (200 ng/mL Ang-1, 10 min of stimulation (FIG. 8A)) is on record as “increase on HUVEC cells”; in experiment [8] (200 ng/mL Ang-1, 30 min stimulation (FIG. 8A)), “decreases from that level”. The “total amount of Tie2 receptor” value in [9] is on record as “does not change with Ang-1 treatment”.
